Patent US20100056508A1, “AMINE DERIVATIVES AND THEIR USE IN BETA-2-ADRENORECEPTOR MEDIATED DISEASES” (ASTRAZENECA AB, priority 2006, published 2010)
Where a name gives a salt, the structure may show the parent alone.

What was measured:
[1] = target: T1, Adrenergic β2 (Homo sapiens, UniProt P07550); test: Adrenergic β2 mediated cAMP production in H292 cells (AlphaScreen cAMP detection); type: cell-based; set-up: key to β2 Int Act: fraction of formoterol maximum activity (formoterol = 1); conditions: for β2 Int Act: Intrinsic Activity as a fraction relative to the maximum activity determined for formoterol; for EC50: cAMP production, 60 minutes at room temperature, 300 μM rolipram, read-out: β2 pEC50 (converted)
T1 construct: Adherent H292 cells were removed from tissue culture flasks; endogenous in cells; host or cells: H292 cells
T1 sequence (P07550 whole entry): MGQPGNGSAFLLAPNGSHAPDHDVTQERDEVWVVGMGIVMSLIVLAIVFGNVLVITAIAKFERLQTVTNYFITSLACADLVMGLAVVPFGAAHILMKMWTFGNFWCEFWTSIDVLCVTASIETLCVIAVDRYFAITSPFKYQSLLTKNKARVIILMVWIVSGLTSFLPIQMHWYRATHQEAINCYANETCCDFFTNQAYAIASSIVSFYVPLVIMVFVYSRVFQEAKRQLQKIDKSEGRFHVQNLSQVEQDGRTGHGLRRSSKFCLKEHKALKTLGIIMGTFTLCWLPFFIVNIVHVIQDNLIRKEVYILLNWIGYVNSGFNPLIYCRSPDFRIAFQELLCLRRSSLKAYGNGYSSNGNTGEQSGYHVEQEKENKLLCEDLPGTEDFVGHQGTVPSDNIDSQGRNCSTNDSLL
Description: Adrenergic β2 Mediated cAMP Production
H292 cells were grown in 225 cm2 flasks incubator at 37° C., 5% CO2 in RPMI medium containing, 10% (v/v) FBS (foetal bovine serum) and 2 mM L-glutamine.
Adherent H292 cells were removed from tissue culture flasks by treatment with Accutase™ cell detachment solution for 15 minutes. Flasks were incubated for 15 minutes in a humidified incubator at 37° C., 5% CO2. Detached cells were re-suspended in RPMI media (containing 10% (v/v) FBS and 2 mM L-glutamine) at 1×10^6 cells per mL. 10000 cells in 100 μL were added to each well of a tissue-culture-treated 96-well plate and the cells incubated overnight in a humidified incubator at 37° C., 5% CO2. The culture media was removed and cells were washed twice with 100 μL assay buffer and replaced with 50 μL assay buffer (HBSS solution containing 10 mM HEPES pH7.4 and 5 mM glucose). Cells were rested at room temperature for 20 minutes after which time 25 μL of rolipram (1.2 mM made up in assay buffer containing 2.4% (v/v) dimethylsulphoxide) was added. Cells were incubated with rolipram for 10 minutes after which time test compounds were added and the cells were incubated for 60 minutes at room temperature. The final rolipram concentration in the assay was 300 μM and final vehicle concentration was 1.6% (v/v) dimethylsulphoxide. The reaction was stopped by removing supernatants, washing once with 100 μL assay buffer and replacing with 50 μL lysis buffer. The cell monolayer was frozen at −80° C. for 30 minutes (or overnight).
AlphaScreen™ cAMP Detection
The concentration of cAMP (cyclic adenosine monophosphate) in the cell lysate was determined using AlphaScreen™ methodology. The frozen cell plate was thawed for 20 minutes on a plate shaker then 10 μL of the cell lysate was transferred to a 96-well white plate. 40 μL of mixed AlphaScreen™ detection beads pre-incubated with biotinylated cAMP, was added to each well and the plate incubated at room temperature for 10 hours in the dark. The AlphaScreen™ signal was measured using an EnVision spectrophotometer (Perkin-Elmer Inc.) with the recommended manufacturer's settings. cAMP concentrations were determined by reference to a calibration curve determined in the same experiment using standard cAMP concentrations. Concentration response curves for agonists were constructed and data was fitted to a four parameter logistic equation to determine both the pEC50 and Intrinsic Activity. Intrinsic Activity was expressed as a fraction relative to the maximum activity determined for formoterol in each experiment.

[2] = target: T2, recombinant human adrenergic beta 1 receptors (Homo sapiens, UniProt P08588); test: Adrenergic β1 selectivity assay, [125I]-Iodocyanopindolol binding to membranes; conditions: inhibition of [125I]-Iodocyanopindolol binding, read-out: β1 bind pIC50 (converted)
T2 construct: purchased Euroscreen
T2 sequence (P08588 whole entry): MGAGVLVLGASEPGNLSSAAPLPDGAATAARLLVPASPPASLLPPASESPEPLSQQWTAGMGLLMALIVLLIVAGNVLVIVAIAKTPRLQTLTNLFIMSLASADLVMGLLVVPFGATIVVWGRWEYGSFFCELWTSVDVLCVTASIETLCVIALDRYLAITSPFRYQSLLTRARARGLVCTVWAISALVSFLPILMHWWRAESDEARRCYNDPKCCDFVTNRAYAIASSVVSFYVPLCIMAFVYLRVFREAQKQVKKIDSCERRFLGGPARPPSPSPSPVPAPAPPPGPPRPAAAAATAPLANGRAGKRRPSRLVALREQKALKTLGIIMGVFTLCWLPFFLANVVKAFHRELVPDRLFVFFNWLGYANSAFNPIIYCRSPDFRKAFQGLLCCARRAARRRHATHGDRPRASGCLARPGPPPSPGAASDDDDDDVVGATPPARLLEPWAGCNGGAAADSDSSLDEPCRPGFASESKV
Description: (§1) Membranes containing recombinant human adrenergic beta 1 receptors were obtained from Euroscreen. These were diluted in Assay Buffer (50 mM HEPES, 1 mM EDTA, 120 mM NaCl, 0.1% gelatin, pH 7.4) to provide a final concentration of membranes that gave a clear window between maximum and minimum specific binding.
Assays were performed in U-bottomed 96-well polypropylene plates. 10 μL [^125I]-Iodocyanopindolol (0.036 nM final concentration) and 10 μL of test compound (10× final concentration) were added to each test well. For each assay plate 8 replicates were obtained for [^125I]-Iodocyanopindolol binding in the presence of 10 μL vehicle (10% (v/v) DMSO in Assay Buffer; defining maximum binding) or 10 μL Propranolol (10 μM final concentration; defining non-specific binding (NSB)). Membranes were then added to achieve a final volume of 100 μL. The plates were incubated for 2 hours at room temperature and then filtered onto PEI coated GF/B filter plates, pre-soaked for 1 hour in Assay Buffer, using a 96-well plate Tomtec cell harvester. Five washes with 250 μL wash buffer (50 mM HEPES, 1 mM EDTA, 120 mM NaCl, pH 7.4) were performed at 4° C. to remove unbound radioactivity. The plates were dried then sealed from underneath using Packard plate sealers and MicroScint-O (50 μL) was added to each well. The plates were sealed (TopSeal A) and filter-bound radioactivity was measured with a scintillation counter (TopCount, Packard BioScience) using a 3-minute counting protocol.
(§2) Total specific binding (B0) was determined by subtracting the mean NSB from the mean maximum binding. NSB values were also subtracted from values from all other wells. […] Data was fitted to a four parameter logistic equation to determine the compound potency, which was expressed as pIC50 (negative log molar concentration inducing 50% inhibition of [^125I]-Iodocyanopindolol binding).

[3] = target: T3, recombinant human Dopamine Subtype D2s receptors (Homo sapiens, UniProt P14416); test: Dopamine D2 selectivity assay, [3H]-spiperone binding to membranes; conditions: inhibition of [3H]-spiperone binding, read-out: D2 bind pIC50 (converted)
T3 construct: purchased Perkin Elmer
T3 sequence (P14416 1-414 isoform P14416-2): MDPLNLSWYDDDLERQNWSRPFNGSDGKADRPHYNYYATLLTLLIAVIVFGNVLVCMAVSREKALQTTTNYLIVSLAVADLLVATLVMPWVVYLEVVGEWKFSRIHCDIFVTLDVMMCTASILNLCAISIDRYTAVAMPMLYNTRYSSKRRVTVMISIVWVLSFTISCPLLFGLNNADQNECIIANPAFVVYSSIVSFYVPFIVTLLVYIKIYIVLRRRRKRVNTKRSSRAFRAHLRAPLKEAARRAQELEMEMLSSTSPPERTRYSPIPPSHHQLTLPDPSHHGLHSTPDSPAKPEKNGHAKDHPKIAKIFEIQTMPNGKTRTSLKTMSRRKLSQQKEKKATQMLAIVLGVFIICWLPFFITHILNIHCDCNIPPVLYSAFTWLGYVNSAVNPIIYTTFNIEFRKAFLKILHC
Description: as §1, with “Dopamine Subtype D2s” for “adrenergic beta 1”, “Perkin Elmer.” for “Euroscreen.”
Assays were performed in U-bottomed 96-well polypropylene plates. 30 μL [^3H]-spiperone (0.16 nM final concentration) and 30 μL of test compound (10× final concentration) were added to each test well. For each assay plate 8 replicates were obtained for [^3H]-spiperone binding in the presence of 30 μL vehicle (10% (v/v) DMSO in Assay Buffer; defining maximum binding) or 30 μL Haloperidol (10 μM final concentration; defining non-specific binding (NSB)). Membranes were then added to achieve a final volume of 300 μL. The plates were incubated for 2 hours at room temperature and then filtered onto PEI coated GF/B filter plates, pre-soaked for 1 hour in Assay Buffer, using a 96-well plate Tomtec cell harvester. Five washes with 250 μL wash buffer (50 mM HEPES, 1 mM EDTA, 120 mM NaCl, pH 7.4) were performed at 4° C. to remove unbound radioactivity. The plates were dried then sealed from underneath using Packard plate sealers and MicroScint-0 (50 μL) was added to each well. The plates were sealed (TopSeal A) and filter-bound radioactivity was measured with a scintillation counter (TopCount, Packard BioScience) using a 3-minute counting protocol.
as §2, with “[^3H]-spiperone” for “[^125I]-Iodocyanopindolol”

Row | SMILES | β2 Int Act [1] | EC50 [1] [µM] | IC50 [2] [µM] | IC50 [3] [µM]
1 | C[C@H](C1CCCCC1)N(CCNCCc1ccc(O)c2c1OCC(=O)N2)C(=O)CCNCCc1ccccc1 [Example 61, (R)—N-(1-Cyclohexylethyl)-N-(2-(2-(5-hydroxy-3-oxo-3,4-dihydro-2H-benzo[b][1,4]oxazin-8-yl)ethylamino)ethyl)-3-(phenethylamino)propanamide bis(trifluoroacetate)] | 0.84 | 0.00316 | 0.501 | 0.1
2 | O=C1COc2c(CCNCCN(C(=O)CCNCCc3ccc(C(=O)O)cc3)C3CCCCC3)ccc(O)c2N1 [Example 43, 4-(2-(3-(Cyclohexyl(2-(2-(5-hydroxy-3-oxo-3,4-dihydro-2H-benzo[b][1,4]oxazin-8-yl)ethylamino)ethyl)amino)-3-oxopropylamino)ethyl)benzoic acid bis(trifluoroacetate)] | 0.97 | 0.0316 | > 10 | > 10
3 | CCCC[C@@H](C)N(CCNCCc1ccc(O)c2c1OCC(=O)N2)C(=O)CCNCCc1ccc(Cl)cc1 [Example 45, (R)-3-(4-Chlorophenethylamino)-N-(hexan-2-yl)-N-(2-(2-(5-hydroxy-3-oxo-3,4-dihydro-2H-benzo[b][1,4]oxazin-8-yl)ethylamino)ethyl)propanamide bis(trifluoroacetate)] | 0.89 | 0.00501 | 1.26 | 0.0794
4 | O=C1COc2c(CCNCCN(C(=O)CCOCCc3ccc(F)cc3)C3CCCCC3)ccc(O)c2N1 [Example 75, N-Cyclohexyl-3-(4-fluorophenethoxy)-N-(2-(2-(5-hydroxy-3-oxo-3,4-dihydro-2H-benzo[b][1,4]oxazin-8-yl)ethylamino)ethyl)propanamide trifluoroacetate] | 0.96 | 0.00251 | 1.26 | 2
5 | O=C1COc2c(CCNCCN(C(=O)CCNCCc3ccc(Cl)c(Cl)c3)C3CCCCCC3)ccc(O)c2N1 [Example 26, N-Cycloheptyl-3-(3,4-dichlorophenethylamino)-N-(2-(2-(5-hydroxy-3-oxo-3,4-dihydro-2H-benzo[b][1,4]oxazin-8-yl)ethylamino)ethyl)propanamide bis(trifluoroacetate)] | 0.74 | 0.00251 | 2 | 0.0316
6 | CCCC[C@@H](C)N(CCNCCc1ccc(O)c2c1OCC(=O)N2)C(=O)CCNCCc1ccccc1 [Example 25, (R)—N-(Hexan-2-yl)-N-(2-(2-(5-hydroxy-3-oxo-3,4-dihydro-2H-benzo[b][1,4]oxazin-8-yl)ethylamino)ethyl)-3-(phenethylamino)propanamide bis(trifluoroacetate)] | 0.9 | 0.001 | 2.51 | 0.1
7 | CCCC[C@@H](C)N(CCNCCc1ccc(O)c2c1OCC(=O)N2)C(=O)CCNCCc1cc(F)cc(Cl)c1 [Example 50, (R)-3-(3-Chloro-5-fluorophenethylamino)-N-(hexan-2-yl)-N-(2-(2-(5-hydroxy-3-oxo-3,4-dihydro-2H-benzo[b][1,4]oxazin-8-yl)ethylamino)ethyl)propanamide bis(trifluoroacetate)] | 0.89 | 0.00126 | 1.26 | 0.0316
8 | O=C1COc2c(CCNCCN(C(=O)CCNCCc3cc(F)cc(Cl)c3)C3CCCCC3)ccc(O)c2N1 [Example 41, 3-(3-Chloro-5-fluorophenethylamino)-N-cyclohexyl-N-(2-(2-(5-hydroxy-3-oxo-3,4-dihydro-2H-benzo[b][1,4]oxazin-8-yl)ethylamino)ethyl)propanamide (trifluoroacetate)] | 0.95 | 0.00316 | > 7.94 | 0.2
9 | O=C(CCNCCc1cccc(F)c1F)N(CCNCCc1ccc(O)c2[nH]c(=O)ccc12)C1CCCCC1 [Example 18, N-Cyclohexyl-3-(3-difluorophenethylamino)-N-(2-(2-(8-hydroxy-2-oxo-1,2-dihydroquinolin-5-yl)ethylamino)ethyl)propanamide bis(trifluoroacetate)] | 0.95 | 0.0126 | > 10 | 3.16
10 | O=C(CCNCCc1cccc(Cl)c1)N(CCNCCc1ccc(O)c2[nH]c(=O)ccc12)C1CCCCCC1 [Example 3, 3-(3-Chlorophenethylamino)-N-cycloheptyl-N-(2-(2-(8-hydroxy-2-oxo-1,2-dihydroquinolin-5-yl)ethylamino)ethyl)propanamide bis(trifluoroacetate)] | 0.82 | 0.00794 | 1.26 | 0.2
11 | O=C(CCNCCc1ccccc1)N(CCNCCc1ccc(O)c(O)c1)C1CCCCC1 [Example 22, N-Cyclohexyl-N-(2-(3,4-dihydroxyphenethylamino)ethyl)-3-(phenethylamino)propanamide bis(trifluoroacetate)] | 1.01 | 0.02 | 2.51 | 0.501
12 | O=C1COc2c(CCNCCN(C(=O)CCNCCc3cccc(Cl)c3F)C3CCCCC3)ccc(O)c2N1 [Example 39, 3-(3-Chloro-2-fluorophenethylamino)-N-cyclohexyl-N-(2-(2-(5-hydroxy-3-oxo-3,4-dihydro-2H-benzo[b][1,4]oxazin-8-yl)ethylamino)ethyl)propanamide bis(trifluoroacetate)] | 0.98 | 0.00158 | 1.26 | 0.1
